Experimental data as given in patent US20240368619A1, “METHODS AND COMPOSITIONS FOR PPO HERBICIDE TOLERANCE” (SESVanderHave NV, priority 2021, published 2024).
Read-outs that look alike come from different tables or passages of the source.

Legend:
Assay type in all cases: in vivo, Beta vulgaris
[1] = tested on: wild-type sugar beet plants; experiment: Spray test of PPO herbicides on control (Ctrl) sugar beet plants; settings: SAF 1X, 200 g a.i./ha, 17 days after spraying
Description: (§1) In other experiments, plants carrying the mutation R126L described below in Table 6 were acclimatized in soil for 3-5 weeks and screened for PPO resistance with a spray test of the PPO herbicides Saflufenacil (Brand name TREEVIX at a recommended dose of 200 g a.i./ha), Pyraflufen-ethyl (Brand name EVOLUTION at a recommended dose of 0.8l/ha, or a.i. 26.5 g/l) Saflufenacil (pure compound Sigma at a recommended dose of 200 g a.i./ha). The spray was performed at a concentration of 0.5× and 1× of the recommended dose for Saflufenacil), and 0.2× for Pyraflufen-ethyl). The pure chemical compound SAF used on the regenerated plants in vitro was also used in this screen at 1× recommended dose of 200 g ai/Ha. Water treatment was included as a control. […] In both experiments each sugar beet plant was multiplied in vitro as to include a total of minimum 4 clones or replicates of each edited sugar beet plant per herbicide treatment. The phytotoxicity effect of PPO inhibiting herbicides was measured in mutated sugar beet plants (on a set of minimum 4 clones per edited sugar beet plant) based on a scale from 0% to 100%, or 1 to 5, (i.e. 0% or 1 being no damage/no phytotoxicity observed and 100% or 5, being all plants were completely damaged or killed,) compared to wild-type plants. […]
No score is provided when the plant has not been tested, noted as NT in the table (not tested). […]

[2] = tested on: regenerated wild-type sugar beet plants; experiment: In vitro growth of regenerated wild-type plants on media containing SAF; settings: media containing SAF 2.5 μM; wild-type genotype
Description: (§2) In other experiments, screening for resistance to PPO herbicides was done on 25 regenerated sugar beet plants obtained after transfection of guard cell protoplasts by growing these plants (8 clones or copies per plant) on media containing SAF at a concentration of 2.5 μM. Visual observation of growth was done after 20 to 28 days. Plants were scored visually according to their growth, and marked “OK” for plants showing growth, “Bit growth” for plants showing limited growth, “No” for plants showing no growth, or “Dead” for plants that were dead after SAF exposure. The concentration of SAF used in this screen was identified as impacting severely on regenerated wild-type plants obtained after protoplast isolation and regeneration from the sugar beet genotype, from which guard cell protoplasts are isolated for transfection.

[3] = tested on: sugar beet plants carrying the R126L mutation; settings: SAF 1X, 200 g a.i./ha, 17 days after spraying
Description: as §1
(§3) No score is provided when the plant has not been tested, noted as NT in the table (not tested). Water treatment was included when enough plants were available. At least 4 copies per edited plant were sprayed. Scores were given on group of 4 copies per edited plant. HDR=edited plant showing the expected mutation R to L at position 126, INDEL=edited plant showing another type of edit than the expected mutation.

[4] = tested on: sugar beet plants edited at position 126 showing another type of edit than the expected mutation; settings: SAF 1X, 200 g a.i./ha, 17 days after spraying
Description: as §1, §3

edited sugar beet plants = experiment: In vitro growth of regenerated edited plants on media containing SAF; settings: media containing SAF 2.5 μM
Description: as §2

**Q.** Which “phytotoxicity score 1 to 5 (healthy to damaged)” value ([1]; B8M52 (Ctrl)) does the source give for `CC(C)N(C)S(=O)(=O)NC(=O)c1cc(-n2c(=O)cc(C(F)(F)F)n(C)c2=O)c(F)cc1Cl` [SAF, saflufenacil] here?
**A.** Its value is 5.

**Q.** What about the “phytotoxicity score 1 to 5 (healthy to damaged)” value ([1]; HTC005 (Ctrl)) of the same molecule?
**A.** Its value is 5.

**Q.** And the “effect on growth of regenerated wild-type plants (visual)” value [2]?
**A.** Its value is “severe growth retardation and in some cases lethal effect”.

**Q.** And the “phytotoxicity score 1 to 5 (healthy to damaged)” value ([3]; event HTC003 (HDR))?
**A.** Its value is 4.

**Q.** What about the “phytotoxicity score 1 to 5 (healthy to damaged)” value ([3]; event HTC007 (HDR)) of the same molecule?
**A.** The value was 3.

**Q.** What about the “phytotoxicity score 1 to 5 (healthy to damaged)” value ([3]; event HTC013 (HDR)) of the same molecule?
**A.** The value was 2.

**Q.** What about the “phytotoxicity score 1 to 5 (healthy to damaged)” value ([3]; event HTC015 (HDR)) of the same molecule?
**A.** The value was 3.

**Q.** And the “phytotoxicity score 1 to 5 (healthy to damaged)” value ([3]; event HTC018 (HDR))?
**A.** The value was 2.

**Q.** And the “phytotoxicity score 1 to 5 (healthy to damaged)” value ([3]; event HTC024 (HDR))?
**A.** Its value is 4.

**Q.** And the “phytotoxicity score 1 to 5 (healthy to damaged)” value ([3]; event HTC046 (HDR))?
**A.** Its value is 2.

**Q.** And the “phytotoxicity score 1 to 5 (healthy to damaged)” value ([3]; event HTC056 (HDR))?
**A.** Its value is 4.

**Q.** What about the “phytotoxicity score 1 to 5 (healthy to damaged)” value ([4]; event HTC001 (INDEL)) of the same molecule?
**A.** The value was 5.

**Q.** And the “phytotoxicity score 1 to 5 (healthy to damaged)” value ([4]; event HTC002 (INDEL))?
**A.** Its value is 4.

**Q.** What about the “phytotoxicity score 1 to 5 (healthy to damaged)” value ([4]; event HTC009 (INDEL)) of the same molecule?
**A.** The value was 4.

**Q.** What about the “phytotoxicity score 1 to 5 (healthy to damaged)” value ([4]; event HTC012 (INDEL)) of the same molecule?
**A.** The value was 4.

**Q.** And the “phytotoxicity score 1 to 5 (healthy to damaged)” value ([4]; event HTC014 (INDEL))?
**A.** Its value is 4.

**Q.** What about the “phytotoxicity score 1 to 5 (healthy to damaged)” value ([4]; event HTC016 (INDEL)) of the same molecule?
**A.** The value was 4.

**Q.** What about the “phytotoxicity score 1 to 5 (healthy to damaged)” value ([4]; event HTC017 (INDEL)) of the same molecule?
**A.** The value was 4.

**Q.** And the “phytotoxicity score 1 to 5 (healthy to damaged)” value ([4]; event HTC021 (INDEL))?
**A.** Its value is 5.

**Q.** What about the “phytotoxicity score 1 to 5 (healthy to damaged)” value ([4]; event HTC023 (INDEL)) of the same molecule?
**A.** The value was 2.

**Q.** What about the “phytotoxicity score 1 to 5 (healthy to damaged)” value ([4]; event HTC028 (INDEL)) of the same molecule?
**A.** The value was 4.

**Q.** What about the “growth of edited plants (visual)” value (edited sugar beet plants; 20 to 28 days, edited plants scored as OK and Bit growth) of the same molecule?
**A.** Its value is “good level of SAF tolerance”.

**Q.** What about the “growth and plant development of edited versus wild-type plants (visual)” value (edited sugar beet plants; 20 days, HTC013 and HTC015 (R126L), 8 copies each, versus wild-type) of the same molecule?
**A.** Its value is “Clear differences in growth, and plant development”.
